In the supplement of paper PMC10307832:

Assays:
Assay in all cases: relative viability (nuclei count vs DMSO), 5 days (fraction); higher = more cells survive
[1] = compound: C1=CC2=NC=CN=C2C=C1/C=C/3\C(=O)NC(=O)S3 + CC(C)C[C@H](NC(=O)[C@H](Cc1ccccc1)NC(=O)c1cnccn1)B(O)O [Bortezomib] (partner 0.002 µM)
Procedure, shortened: (§1)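 Medians of duplicate plates are given as relative viability. That measure is the nuclei count in treated wells divided by the count in vehicle wells. Counts were taken on 4× images of lung cancer cell lines in 1536-well plates, 5 days after pin-tool dosing the day after seeding with one drug alone or a fixed anchor-drug dose plus five library-drug doses (not always all listed) in √10 steps.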

[2] = compound: C1=CC2=NC=CN=C2C=C1/C=C/3\C(=O)NC(=O)S3 + Cc1nc(Nc2ncc(C(=O)Nc3c(C)cccc3Cl)s2)cc(N2CCN(CCO)CC2)n1 [Dasatinib] (partner 0.075 µM)
Procedure, shortened: as §1

BGJ398 + Trametinib = compound: CCN1CCN(c2ccc(Nc3cc(N(C)C(=O)Nc4c(Cl)c(OC)cc(OC)c4Cl)ncn3)cc2)CC1 [BGJ398] + CC(=O)Nc1cccc(-n2c(=O)n(C3CC3)c(=O)c3c(Nc4ccc(I)cc4F)n(C)c(=O)c(C)c32)c1 [Trametinib] (partner 0.02 µM)
Procedure, shortened: as §1

BGJ398 + Foretinib = compound: CCN1CCN(c2ccc(Nc3cc(N(C)C(=O)Nc4c(Cl)c(OC)cc(OC)c4Cl)ncn3)cc2)CC1 [BGJ398] + COc1cc2c(Oc3ccc(NC(=O)C4(C(=O)Nc5ccc(F)cc5)CC4)cc3F)ccnc2cc1OCCCN1CCOCC1 [Foretinib] (partner 0.25 µM)
Procedure, shortened: as §1

Row | Cell Line | relative viability ([1]; first compound 0.02 µM) | relative viability ([1]; first compound 0.06325 µM) | relative viability ([1]; first compound 0.2 µM) | relative viability ([1]; first compound 0.6325 µM) | relative viability ([1]; first compound 2 µM) | relative viability ([2]; first compound 0.02 µM) | relative viability ([2]; first compound 0.06325 µM) | relative viability ([2]; first compound 0.2 µM) | relative viability ([2]; first compound 0.6325 µM) | relative viability ([2]; first compound 2 µM) | relative viability (BGJ398 + Trametinib; first compound 0.01 µM) | relative viability (BGJ398 + Trametinib; first compound 0.03162 µM) | relative viability (BGJ398 + Trametinib; first compound 0.1 µM) | relative viability (BGJ398 + Trametinib; first compound 0.3162 µM) | relative viability (BGJ398 + Trametinib; first compound 1 µM) | relative viability (BGJ398 + Foretinib; first compound 0.01 µM) | relative viability (BGJ398 + Foretinib; first compound 0.03162 µM) | relative viability (BGJ398 + Foretinib; first compound 0.1 µM) | relative viability (BGJ398 + Foretinib; first compound 0.3162 µM) | relative viability (BGJ398 + Foretinib; first compound 1 µM)
1 | NCI-H2087 | 0.831 | 0.942 | 0.68 | 0.809 | 0.805 | 0.761 | 0.713 | 0.911 | 0.857 | 0.507 | 0.142 | 0.22 | 0.188 | 0.197 | 0.189 | 1.05 | 1.33 | 1.18 | 1.15 | 1.09
2 | LC-2-ad | 0.964 | 1.02 | 1.09 | 0.943 | 0.829 | 0.843 | 0.528 | 0.746 | 0.622 | 0.256 | 0.912 | 0.935 | 0.892 | 0.873 | 0.985 | 1.05 | 0.839 | 1.02 | 0.963 | 0.99
3 | NCI-H1915 | 0.985 | 1.05 | 1.05 | 0.99 | 1 | 0.297 | 0.313 | 0.332 | 0.297 | 0.282 | 0.282 | 0.31 | 0.29 | 0.221 | 0.17 | 1.05 | 1.06 | 1.14 | 1.1 | 1.09
4 | NCI-H2023 | 0.924 | 0.923 | 1.03 | 0.875 | 0.645 | 0.5 | 0.55 | 0.582 | 0.446 | 0.246 | 0.615 | 0.566 | 0.473 | 0.522 | 0.541 | 0.847 | 0.997 | 0.79 | 0.805 | 0.905
5 | COR-L 105 | 0.717 | 0.887 | 0.864 | 0.759 | 0.755 | 0.343 | 0.344 | 0.376 | 0.402 | 0.279 | 0.423 | 0.431 | 0.444 | 0.399 | 0.431 | 1.05 | 1.13 | 1.09 | 1.07 | 0.892
6 | RERF-LC-KJ | 1.25 | 1.17 | 1.23 | 1.14 | 1.11 | 0.621 | 0.911 | 0.933 | 0.654 | 0.66 | 0.854 | 0.864 | 0.962 | 0.87 | 0.953 | 0.912 | 0.899 | 0.961 | 0.911 | 0.851
7 | LXF-289 | 0.977 | 0.985 | 1.05 | 0.941 | 1.02 | 0.192 | 0.176 | 0.254 | 0.215 | 0.0852 | 0.567 | 0.649 | 0.672 | 0.563 | 0.593 | 0.901 | 0.901 | 0.881 | 0.873 | 0.871
8 | PC-14 | 0.726 | 0.816 | 0.81 | 0.882 | 0.81 | 0.287 | 0.207 | 0.301 | 0.265 | 0.238 | 0.762 | 0.821 | 0.735 | – | 0.903 | 0.905 | 0.618 | 1.02 | 0.802 | 1.03
9 | NCI-H650 | 0.977 | 0.775 | 0.907 | 0.78 | 0.379 | 0.524 | 0.468 | 0.561 | 0.415 | 0.286 | 0.927 | 1.04 | 1.08 | 0.963 | 0.959 | 0.983 | 1.06 | 1.06 | 1.04 | 0.928
10 | NCI-H1666 | 0.834 | 0.854 | 1.06 | 0.649 | 0.673 | 0.716 | 0.835 | 0.772 | 0.819 | 0.575 | 0.735 | 0.908 | 0.965 | 0.911 | 0.75 | 1.03 | 1.01 | 0.963 | 0.945 | 1.01
11 | NCI-H2085 | 1.03 | 1.07 | 1.02 | 0.824 | 1.01 | 0.226 | 0.212 | 0.248 | 0.257 | 0.213 | 0.498 | 0.525 | 0.505 | 0.705 | 0.502 | 1 | 1.12 | 0.909 | 0.903 | 0.781
12 | NCI-H1734 | 0.761 | – | 1 | 0.919 | 0.747 | 0.463 | 0.468 | 0.467 | 0.41 | 0.269 | 0.591 | 0.657 | 0.54 | 0.42 | 0.381 | 0.862 | 0.879 | 0.893 | 0.785 | 0.827
13 | NCI-H2126 | 1.08 | 1.16 | 1.11 | 1.08 | 0.716 | 0.499 | 0.625 | 0.614 | 0.629 | 0.266 | 0.609 | 0.531 | 0.615 | 0.629 | 0.567 | 1.19 | 1.28 | 1.26 | 1.2 | 1.12
14 | EMC-BAC-2 | 1.01 | 1.2 | 1.02 | 0.997 | 0.895 | 0.309 | 0.297 | 0.33 | 0.322 | 0.224 | 0.919 | 0.912 | 0.929 | 0.78 | 0.854 | 1.12 | 1.02 | 0.98 | 1.05 | 0.992
15 | NCI-H1993 | 0.892 | 1.02 | 1.05 | 0.952 | 0.724 | 0.516 | 0.592 | 0.667 | 0.581 | 0.521 | 0.447 | 0.524 | 0.596 | 0.441 | 0.595 | 0.833 | 0.67 | 0.883 | 0.842 | 0.735
16 | NCI-H520 | 0.793 | 0.632 | 0.538 | 0.489 | 0.657 | 0.181 | 0.229 | 0.217 | 0.161 | 0.151 | 0.586 | 0.548 | 0.351 | 0.189 | 0.205 | 0.777 | 0.7 | 0.316 | 0.25 | 0.236
17 | NCI-H647 | 1.1 | 1.16 | 1.11 | 0.72 | 0.951 | 0.173 | 0.259 | 0.256 | 0.149 | 0.103 | 0.374 | 0.573 | 0.526 | 0.447 | 0.345 | 1.09 | 1.12 | 1.12 | 1.39 | 1.27
18 | SK-LU-1 | 1.37 | 1.32 | 1.44 | 1.29 | 0.783 | 0.196 | 0.196 | 0.2 | 0.19 | 0.0971 | 0.446 | 0.669 | 0.454 | 0.52 | 0.229 | 0.716 | 0.833 | 0.778 | 0.791 | 0.869
19 | ChaGo-K-1 | 1.05 | 1.65 | 1.16 | 0.952 | 0.868 | 0.611 | 0.574 | 0.596 | 0.544 | 0.499 | 0.876 | 0.914 | 0.871 | 0.922 | 0.929 | 0.899 | 0.991 | 0.914 | 1.01 | 0.907
20 | NCI-H1650 | 0.207 | 0.173 | 0.219 | 0.201 | 0.213 | 0.274 | 0.355 | 0.364 | 0.289 | 0.248 | 0.503 | 0.568 | 0.471 | 0.304 | 0.25 | 1.31 | – | 1.17 | 0.857 | 1.08
21 | NCI-H2009 | 0.954 | 1.07 | 1.11 | 0.969 | 0.801 | 0.312 | 0.31 | 0.358 | 0.272 | 0.175 | 0.261 | 0.265 | 0.219 | 0.23 | 0.244 | 1.11 | 1.24 | 1.22 | 1.22 | 1.26
22 | LOU-NH91 | 0.415 | 0.517 | 0.512 | 0.562 | 0.513 | 0.568 | 0.597 | 0.551 | 0.525 | 0.354 | 0.718 | 0.689 | 0.779 | 0.705 | 0.759 | 0.943 | – | 0.975 | 0.563 | 0.951
23 | NCI-H2405 | 0.96 | 1.06 | 0.991 | 1 | 0.782 | 0.233 | 0.161 | 0.231 | 0.184 | 0.155 | 0.495 | 0.654 | 0.622 | 0.463 | 0.59 | 1.03 | 1.1 | 1.1 | 1.09 | 0.972
24 | LCLC-97TM1 | 0.624 | 0.515 | 0.573 | 0.776 | 0.125 | 0.974 | 0.762 | 0.775 | 0.8 | 0.306 | 0.185 | 0.205 | 0.215 | 0.21 | 0.218 | 0.813 | 0.923 | 0.947 | 0.925 | 1.03
25 | NCI-H596 | 1.36 | 1.06 | 1.17 | 0.876 | – | 0.67 | 0.588 | 0.62 | 0.528 | 0.427 | 0.719 | 0.631 | 0.773 | 0.709 | 0.62 | 0.903 | 0.804 | 0.773 | 0.944 | 0.779
26 | NCI-H727 | 0.777 | 0.828 | 0.795 | 0.833 | 0.475 | 0.488 | 0.362 | 0.355 | 0.378 | 0.24 | 0.417 | 0.412 | 0.381 | 0.389 | 0.385 | 1.12 | 0.773 | 0.822 | 0.848 | 0.927
27 | H3255 | 0.869 | 0.91 | 0.778 | 0.682 | 0.741 | 0.365 | 0.329 | 0.348 | 0.379 | 0.38 | 0.61 | – | 0.702 | – | 0.707 | 0.985 | – | 0.961 | 0.386 | 0.878
